The results in this text go back to publication PMC6416395, “B1.12: a novel peptide interacting with the extracellular loop of the EBV oncoprotein LMP1” (Scientific Reports, 2019).

Residues, ends and D or L forms follow the SMILES beside them.

One test concerns B1 peptide. As to the kind of experiment: Competitive inhibition of phage B1.12 binding to B1 peptide. The arrangement: species or system Epstein-Barr virus (EBV). The note with it: B1.12 phage 2 × 10^10 pfu, room temperature 1 hour. How it is done: Binding of the B1.12 peptide to its target B1 and to HeLa/LMP1 cells was evaluated by a competitive binding assay. […] Then the B1.12 phage (2 × 10^10 pfu) was added to each well and incubated for 1 hour. After washing, the bound phage was detected by the anti-M13 antibody as described previously. For the competition test on HeLa cells expressing or not the viral oncoprotein LMP1, cells were seeded into 96-well plates (10^4 cells/well), washed twice in PBS, and fixed with 4% paraformaldehyde for 30 minutes at room temperature. Synthetic peptides at concentrations of 50, 75, 100 and 200 µM were incubated with the cells at 37 °C for 1 hour and the experiment was carried out as described above. All experiments were done in triplicate and the mean values of OD were used to calculate the rate of competitive inhibition according to the following formula: inhibition ratio = (OD control − OD phage)/OD control × 100, where OD control and OD phage represent the OD450 nm values of phage binding on cells incubated with PBS and with the peptide, respectively.

A further test has as its system HeLa/LMP1 cells. Nature of the test: Competitive inhibition of phage B1.12 binding to HeLa/LMP1 cells. It is filed as cell-based. The note with it: peptide 100 µM, 37 °C 1 hour, triplicate mean. How it is done: Binding of the B1.12 peptide to its target B1 and to HeLa/LMP1 cells was evaluated by a competitive binding assay. For competition on B1 as a target, the B1.12 peptide or the unrelated control peptide were incubated at concentrations of 1, 5, 10, 25, 50 and 100 µM with B1 peptide (100 µl of a solution of 1 mg/mL in NaHCO3) at room temperature for 1 hour. Then the B1.12 phage (2 × 10^10 pfu) was added to each well and incubated for 1 hour. After washing, the bound phage was detected by the anti-M13 antibody as described previously. For the competition test on HeLa cells expressing or not the viral oncoprotein LMP1, cells were seeded into 96-well plates (10^4 cells/well), washed twice in PBS, and fixed with 4% paraformaldehyde for 30 minutes at room temperature. Synthetic peptides at concentrations of 50, 75, 100 and 200 µM were incubated with the cells at 37 °C for 1 hour and the experiment was carried out as described above. All experiments were done in triplicate and the mean values of OD were used to calculate the rate of competitive inhibition according to the following formula: inhibition ratio = (OD control − OD phage)/OD control × 100, where OD control and OD phage represent the OD450 nm values of phage binding on cells incubated with PBS and with the peptide, respectively.

Take `CC(C)C[C@H](NC(=O)[C@H](CC(=O)O)NC(=O)[C@H](CC(C)C)NC(=O)[C@@H]1CCCN1C(=O)[C@H](CS)NC(=O)[C@H](C)N)C(=O)N[C@@H](CCCNC(=N)N)C(=O)N[C@@H](CO)C(=O)N1CCC[C@H]1C(=O)N[C@@H](CS)C(=O)NCC(N)=O` [B1.12] (H-ACPLDLRSPCG-NH2; N-terminus and C-terminus assumed): in the test on B1 peptide (increasing peptide concentration, triplicate), the “effect on binding of phage B1.12 to target B1” value is “the inhibition ratio increased gradually”. The inhibition ratio entry with B1 peptide (peptide 400 µM, triplicate mean) is “approximately 43%”; with HeLa/LMP1 cells, 45%.
